PMC11313965, “Bioactive Naphthoquinone and Phenazine Analogs from the Endophytic Streptomyces sp. PH9030 as α-Glucosidase Inhibitors” (Molecules, 2024)
Values after ≈ are worked out from the molar mass of the structure shown. Read-outs that look alike come from different tables or passages of the source.

Columns and labels:
lung (A549) cancer cells = conditions: cited from earlier work
[1] = system: breast (MDA MB-231) cancer cells; conditions: cited from earlier work
HeLa S3 cells = system: HeLa S3 cells; parameters: method as in PMID 2324009; conditions: cited from earlier work
Bacillus subrifis = system: Bacillus subrifis; parameters: method as in doi:10.1016/0040-4039(93)88010-G; conditions: cited from earlier work
[2] = system: Staphylococcus aureus ATCC 25923; parameters: method as in PMID 24389824; conditions: cited from earlier work
[3] = system: Staphylococcus epidermidis ATCC 12228; parameters: method as in PMID 24389824; conditions: cited from earlier work
α-glucosidase = α-glucosidase (Saccharomyces cerevisiae, UniProt P53341); assay: biochemical; conditions: read-out: IC50, α-glucosidase inhibitory activity
Chain of α-glucosidase (P53341 whole entry): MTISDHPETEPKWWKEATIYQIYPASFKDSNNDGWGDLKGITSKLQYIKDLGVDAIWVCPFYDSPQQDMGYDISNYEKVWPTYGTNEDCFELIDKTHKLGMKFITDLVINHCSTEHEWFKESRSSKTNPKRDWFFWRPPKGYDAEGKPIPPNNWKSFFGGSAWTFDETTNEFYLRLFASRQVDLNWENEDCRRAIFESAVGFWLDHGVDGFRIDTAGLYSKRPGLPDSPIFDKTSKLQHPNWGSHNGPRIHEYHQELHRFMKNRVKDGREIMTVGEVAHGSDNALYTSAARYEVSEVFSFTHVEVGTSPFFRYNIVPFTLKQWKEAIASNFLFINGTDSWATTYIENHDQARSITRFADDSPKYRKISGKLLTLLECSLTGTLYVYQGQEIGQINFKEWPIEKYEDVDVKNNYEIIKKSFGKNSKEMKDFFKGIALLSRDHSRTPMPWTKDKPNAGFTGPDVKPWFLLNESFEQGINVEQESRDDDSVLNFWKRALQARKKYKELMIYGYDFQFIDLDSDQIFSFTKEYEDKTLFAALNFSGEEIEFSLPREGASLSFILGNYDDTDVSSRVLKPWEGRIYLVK

[4] = system: Klebsiella pneumoniae ATCC 13883; assay: Antibacterial assay, broth dilution MIC; format: cell-based
Procedure: (§1) The MIC values of 5–12 against Staphylococcus aureus ATCC 29213, MRSA, Klebsiella pneumoniae ATCC 13883 and Pseudomonas aeruginosa ATCC 9027 were determined via a broth dilution assay in 96-well plates, with levofloxacin as a control (Table S7).
(§2) The broth dilution method was used to determine the minimum inhibitory concentrations (MICs). The details are described in the Supplementary Materials. […]
(§3) Compounds 5 – 12 were tested for antibacterial activity against Staphylococcus aureus ATCC 29213, methicillin-resistant Staphylococcus aureus (MRSA), Klebsiella pneumoniae ATCC 13883 and Pseudomonas aeruginosa ATCC 9027. The MICs were determined using broth dilution assay. The bacterial strains were cultured overnight and diluted to […] in Luria-Bertani (LB, Table S1) broth. 5 – 12 were dissolved in DMSO, serially diluted to 10 different concentrations (64, 32, 16, 8, 4, 2, 1, 0.5. 0.25, 0.125 μg/mL) using LB broth on the 96 well plate.
(§4) Levofloxacin (Bide Pharmatech Ltd., Shanghai, China) was dissolved in DMSO, serially diluted to 1 0 concentrations (0.125 –64 μg/mL) using LB broth on each 96-well plate. Then 100 μL LB broth containing compounds 5 – 12 or levofloxacin and 100 μL of bacterial solution were mixed per well. The plates were incubated at 37 °C for 18 h. Finally, 50 μL resazurin (Shanghai Macklin Biochemical Technology Co., Ltd., Shanghai, China) was added into each well to visualize the result. […]

[5] = system: Pseudomonas aeruginosa ATCC 9027; assay: Antibacterial assay, broth dilution MIC; format: cell-based
Procedure: as §1, §2, §3, §4

[6] = system: Staphylococcus aureus ATCC 29213; assay: Antibacterial assay, broth dilution MIC; format: cell-based
Procedure: as §1, §2, §3, §4

[7] = system: methicillin-resistant Staphylococcus aureus (MRSA); assay: Antibacterial assay, broth dilution MIC; format: cell-based; conditions: 18 h
Procedure: as §1, §2, §3, §4

[8] = ATCC13883, Klebsiella pneumoniae ATCC 13883, 37 °C, 18 h, read-out: MIC
[9] = ATCC9027, Pseudomonas aeruginosa ATCC 9027, 37 °C, 18 h, read-out: MIC
[10] = ATCC29213, Staphylococcus aureus ATCC 29213, 37 °C, 18 h, read-out: MIC
[11] = Staphylococcus aureus, 37 °C, read-out: MIC

| MIC [4, 8] [µg/mL] | MIC [7, 11] [µg/mL] | Molecule | IC50 (α-glucosidase) [µM] | MIC [5, 9] [µg/mL] | MIC [6, 10] [µg/mL] | further results |
| --- | --- | --- | --- | --- | --- | --- |
|  |  | 5-Methyl phenazine-1-carboxylic acid [Compound 4] |  |  |  | IC50 (lung (A549) cancer cells): 488.7 ± 2.52 nM; IC50 [1]: 458.6 ± 2.48 nM |
|  |  | CC1(C)OC2=C(C(=O)c3cc(O)cc(O)c3C2=O)[C@@H]2C=C(CO)CC[C@@H]21 [Compound 1, naphthgeranine B] |  |  |  | IC50, cytotoxic effect (HeLa S3 cells): 1.6 µg/mL (≈ 4.49 µM) |
|  |  | CC(C)=CCC[C@@]1(C)OC2=C(C(=O)c3c(Br)c(O)cc(O)c3C2=O)[C@@H]2C=C(C)CC[C@@H]21 [Compound 2, marinone] |  |  |  | MIC (Bacillus subrifis): 1 µg/mL (≈ 2.05 µM) |
|  |  | Oc1c(Br)ccc2nc3ccccc3nc12 [Compound 3, 2-Bromo-1-hydroxyphenazine] |  |  |  | MIC [2]: 1.72 µg/mL (≈ 6.25 µM); MIC [3]: 1.72 µg/mL (≈ 6.25 µM) |
|  |  | CC1=CC2C3=C(OC(C)(C)C2CC1O)C(=O)c1c(O)cc(O)cc1C3=O (stereo not shown) [Compound 6, 12-Hydroxy-naphthgeranine A] | 116 ± 4.4 |  |  | MIC ([4]; Klebsiella pneumoniae ATCC 13883, 37 °C, 18 h): > 64 µg/mL; MIC ([5]; Pseudomonas aeruginosa ATCC 9027, 37 °C, 18 h): > 64 µg/mL; MIC ([6]; Staphylococcus aureus ATCC 29213, 37 °C, 18 h): > 64 µg/mL; MIC ([7]; 37 °C): > 64 µg/mL |
| > 64 | > 64 | O=C(O)c1cccc2c1Nc1ccccc1N2C(=O)CO [Compound 8, 5-(2-hydroxyacetyl)-5,10-dihydrophenazine-1-carboxylic acid] |  | > 64 | > 64 |  |
|  |  | O=C(O)c1cccc2nc3ccccc3nc12 [Compound 10, phenazine-1-carboxylic acid] | > 800 |  |  | MIC ([4]; Klebsiella pneumoniae, ATCC13883, 18 h): > 64 µg/mL; MIC ([5]; Pseudomonas aeruginosa, ATCC9027, 18 h): > 64 µg/mL; MIC ([6]; Staphylococcus aureus, ATCC29213, 18 h): 32 µg/mL (≈ 143 µM); MIC ([7]; Staphylococcus aureus): > 64 µg/mL |
| > 64 | > 64 | COC(=O)c1cccc2nc3ccccc3nc12 [Compound 11, 1-carbomethoxyphenazine] |  |  |  |  |
| > 64 | 16 (≈ 88.8 µM) | c1ccc2nc3ccccc3nc2c1 [Compound 12, phenazin] |  |  |  |  |
| 1 (≈ 2.77 µM) | 0.5 (≈ 1.38 µM) | C[C@H]1COc2c(N3CCN(C)CC3)c(F)cc3c(=O)c(C(=O)O)cn1c23 [LEV, levofloxacin, reference compound] |  | 2 (≈ 5.53 µM) | 0.25 (≈ 0.692 µM) |  |

| Molecule | MIC [4, 8] [µg/mL] | MIC [7, 11] [µg/mL] | IC50 (α-glucosidase) [µM] | MIC [5, 9] [µg/mL] | MIC [6, 10] [µg/mL] | further results |
| --- | --- | --- | --- | --- | --- | --- |
| CC1=CC2C3=C(OC(C)(C)C2CC1O)C(=O)c1c(O)cc(O)cc1C3=O (stereo not shown) [Compound 5, naphthgeranine G] | > 64 | > 64 | 66.4 ± 6.7 | > 64 | > 64 |  |
| CC1=CC2C3=C(OC(C)(C)C2CC1)C(=O)c1c(O)cc(O)cc1C3=O (stereo not shown) [Compound 7, naphthgeranine A] | > 64 | > 64 | 185.9 ± 0.2 | > 64 | > 64 |  |
| NC(=O)c1cccc2nc3ccccc3nc12 [Compound 9, phenazine-1-carboxamide] | > 64 | 16 (≈ 71.7 µM) | 105 ± 10.5 | > 64 | 64 (≈ 287 µM) |  |
